# Results as given in the supplement of paper PMC10307832.
# How the values were obtained:
# Experiment in all cases: relative viability (nuclei count vs DMSO), 5 days (fraction); higher = more cells survive
# Apatinib + Trametinib = compound: N#CC1(c2ccc(NC(=O)c3cccnc3NCc3ccncc3)cc2)CCCC1 [Apatinib] + CC(=O)Nc1cccc(-n2c(=O)n(C3CC3)c(=O)c3c(Nc4ccc(I)cc4F)n(C)c(=O)c(C)c32)c1 [Trametinib] (partner 0.02 µM)
# Outline: (§1)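 Lung cancer cell lines in 1536-well plates got either a single drug or a fixed anchor-drug dose together with five library-drug doses (not always all listed) in √10 steps, by pin tool, on the day after seeding. Nuclei were counted after 5 days, and relative viability is the treated-to-vehicle ratio of nuclei counts. Values are medians of duplicate plates.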
# Metformin + Dasatinib = compound: CN(C)C(=N)NC(=N)N [Metformin] + Cc1nc(Nc2ncc(C(=O)Nc3c(C)cccc3Cl)s2)cc(N2CCN(CCO)CC2)n1 [Dasatinib] (partner 0.075 µM)
# Outline: as §1
# Apatinib + Foretinib = compound: N#CC1(c2ccc(NC(=O)c3cccnc3NCc3ccncc3)cc2)CCCC1 [Apatinib] + COc1cc2c(Oc3ccc(NC(=O)C4(C(=O)Nc5ccc(F)cc5)CC4)cc3F)ccnc2cc1OCCCN1CCOCC1 [Foretinib] (partner 0.25 µM)
# Outline: as §1
# Metformin + Bortezomib = compound: CN(C)C(=N)NC(=N)N [Metformin] + CC(C)C[C@H](NC(=O)[C@H](Cc1ccccc1)NC(=O)c1cnccn1)B(O)O [Bortezomib] (partner 0.002 µM)
# Outline: as §1
Cell Line,relative viability (Apatinib + Trametinib; first compound 0.08 µM),relative viability (Apatinib + Trametinib; first compound 0.253 µM),relative viability (Apatinib + Trametinib; first compound 0.8 µM),relative viability (Apatinib + Trametinib; first compound 2.53 µM),relative viability (Apatinib + Trametinib; first compound 8 µM),relative viability (Metformin + Dasatinib; first compound 10 µM),relative viability (Metformin + Dasatinib; first compound 31.62 µM),relative viability (Metformin + Dasatinib; first compound 100 µM),relative viability (Metformin + Dasatinib; first compound 316.23 µM),relative viability (Metformin + Dasatinib; first compound 1000 µM),relative viability (Apatinib + Foretinib; first compound 0.08 µM),relative viability (Apatinib + Foretinib; first compound 0.253 µM),relative viability (Apatinib + Foretinib; first compound 0.8 µM),relative viability (Apatinib + Foretinib; first compound 2.53 µM),relative viability (Apatinib + Foretinib; first compound 8 µM),relative viability (Metformin + Bortezomib; first compound 10 µM),relative viability (Metformin + Bortezomib; first compound 31.62 µM),relative viability (Metformin + Bortezomib; first compound 100 µM),relative viability (Metformin + Bortezomib; first compound 316.23 µM),relative viability (Metformin + Bortezomib; first compound 1000 µM)
NCI-H2405,0.594,0.625,0.599,0.527,0.44,0.272,0.265,0.253,0.272,0.255,1.15,1.02,1.09,0.998,1.09,0.55,1.01,0.972,0.924,0.613
NCI-H1993,0.436,0.579,0.538,0.493,0.461,0.764,0.59,0.665,0.639,0.703,0.85,0.766,0.808,0.702,0.687,1.09,1.19,1.12,1.18,1.39
NCI-H322M,0.506,0.651,0.494,0.545,0.425,0.326,0.318,0.31,0.305,0.245,1.02,0.857,0.944,0.984,0.88,1.32,1.45,1.19,1.36,1.48
EMC-BAC-2,–,0.869,0.887,0.818,0.799,0.37,0.312,0.323,0.334,0.395,1.08,1.12,1.04,0.919,0.858,1.09,1.11,1.04,1.11,1.09
NCI-H2228,0.405,0.568,0.646,0.416,0.549,0.519,0.576,0.438,0.458,0.55,0.933,0.791,0.777,0.688,0.51,1.44,1.09,–,0.956,1.13
PC-14,0.754,0.897,0.563,0.636,0.388,0.337,0.285,0.253,0.235,0.233,1.02,1.01,0.83,0.973,1.06,0.818,0.943,0.767,0.906,0.82
RERF-LC-KJ,0.89,0.849,0.891,0.758,0.711,0.689,0.709,0.613,0.462,0.534,0.875,0.931,0.857,0.737,0.733,1.14,1.15,1.1,1.01,0.988
